Test results: US7947854B2, “Bis-cationic compounds and use thereof” (The University of Sydney, priority 2003, dated 2011)
Like-named read-outs stand apart in the source and are kept apart here.

Legend:
[1] = tested on: secreted phospholipase B (PLB activity); test: Radiometric assay, secreted PLB activity; type: biochemical, Cryptococcus neoformans H99
Protocol: (§1) Fungal isolates and media. […] Isolate H99 was kindly supplied by Dr. Gary Cox (Duke University Medical Center, Durham, N.C., USA), and subcultured onto Sabouraud dextrose agar (SDA) at 30° C.
(§2) Preparation of supernatants containing secreted phospholipase activities. Isolate H99 was grown to confluence on SDA in 16 cm diameter Petri dishes for 72 h at 30° C. in air. Cells scraped from 10-20 dishes were washed sequentially with isotonic saline and imidazole buffer (10 mM imidazole, 2 mM CaCl2, 2 mM Mg Cl2, 56 mM D-Glucose, made up in isotonic saline, pH 5.5), resuspended in a volume of this buffer of about 10% of the cell volume, and incubated for 24 h at 37° C. The cell-free supernatant was separated by centrifugation as previously described and stored at −70° C.
Radiometric assay method for phospholipases. Enzyme activities were measured as described previously in a final volume of 125 μL at 37° C. For the determination of secreted PLB activity, carrier dipalmitoyl phosphatidylcholine (DPPC, final concentration 800 μM) and 1,2-di[1-^14C] palmitoyl phosphatidylcholine (20,000 dpm) were dried under nitrogen and suspended in 125 mM imidazole acetate buffer (assay buffer, pH 4.0) by sonication using a Branson 450 sonifier. The reaction time was 22 min, using 1 μg total protein and PLB activity was determined by the rate of decrease of the radiolabelled PC substrate, with appearance of the label in free fatty acid. This assay also simultaneously allows for the determination of phospholipase A, C and D activities. These activities were measured by the appearance of radiolabel from PC in Lyso PC, diacylglycerol and phosphatidic acid, respectively.
(§3) All reactions were terminated by adding 0.5 mL of chloroform:methanol (2:1 v/v). The reaction products were extracted by the method as disclosed in Bligh, E. C. and W. J. Dyer. 1959 ‘A rapid method of total lipid extraction and purification.’ Can. J. Biochem. Physiol. 37:911-917, separated by TLC and quantified as previously described. In the case of PLC activity, the TLC plates were developed in petroleum ether (BP 60-80° C.): diethyl ether: acetic acid (90:15:1, v/v/v) instead of chloroform:methanol:water (65:25:4, v/v/v).
(§4) Preparation of inhibitors and use in assays. The following compounds were tested (for structures, see FIG. 2): compound 1, 1,12-bis(tributylphosphonium)dodecane dibromide (Fluka AG, Buchs, Switzerland); compound 2, 1,10-bis(tributylammonium)-decane dibromide; compound 3, 1,12-bis(tributylammonium)do-decane dibromide (both synthesised in-house); compound 4, 1,10-bis(trimethylammonium)decane dibromide [“decamethonium”] (Sigma, St. Louis Mo., USA). All compounds were prepared as stock solutions of 700 μM in assay buffer containing 5 mM EDTA, which was then diluted serially with buffer to obtain solutions of 70, 7, 0.7 and 0.07 μM. In each assay, 45 μL of these solutions was used, and the final volume of 125 μL was made up of substrate, enzyme and buffer. The radiometric assay was carried out as above. Inhibition was calculated as the percent of substrates (DPPC or Lyso-PC) remaining in the case of PLB and LPL activities, or of DPPC produced, in the case of the LPTA activity. The amounts converted, or produced, in the inhibitor-free control were normalised to 100%, and the inhibition calculated against it. All assays were done in triplicate.
(§5) Under these conditions only PLB, LPL and LPTA activities (both secreted and cell-associated) were measured. Initially, compounds deemed to be potential inhibitors were assayed at 25 and 250 μM. Those showing some inhibition were then also assayed at 2.5 and 0.25 μM.

[2] = tested on: Cryptococcus neoformans ATCC 90112; test: Antifungal susceptibility testing, microdilution MIC; type: cell-based; settings: Cryptococcus neoformans
Protocol: (§6) Antifungal susceptibility testing. The antifingal activity of the compounds was measured by a standard microdilution method. […] The fungal strains tested included Cryptococcus neoformans H99, Cryptococcus neoformans ATCC 90112 and Candida albicans ATCC 10231. All tests were performed in duplicate.
(§7) A range of cationic compounds were assayed for antifungal activity in a standardised serial dilution sensitivity test against C. neoformans ([…]) and C. Albicans (ATCC 10231).

[3] = tested on: Candida albicans ATCC 10231; test: as above; type: cell-based; settings: Candida albicans
Protocol: as §6, §7

[4] = tested on: erythrocyte; type: cell-based; settings: 37° C., 1 h
Protocol: Human blood was collected in 10 mL Vacutainer tubes containing potassium-EDTA as anticoagulant. The blood from each vacutainer was transferred to a 50 mL centrifuge tube and the cells washed three times with calcium- and magnesium-free phosphate buffered saline (PBS) (Gibco) by centrifugation at 2000×g for 15 min. The third supernatant was clear and colourless. Cells were stored in PBS for up to two weeks. The cell suspension in PBS (0.5 mL) was mixed with a stock solution of test substance (0.5 mL) at the appropriate concentration (final erythrocyte concentration of approx. 0.5×10^9 per mL). The mixtures were incubated at 37° C. for 1 h with gentle shaking, then centrifuged at 2000×g for 10 min. The supernatant was diluted 10-fold with PBS and the optical density measured at 540 nm. The values for 0% and 100% lysis were determined by incubating cells with PBS or 0.1% Triton X-100 (in water), respectively. Assays were carried out in triplicate.

[5] = tested on: secreted phospholipase B (LPL/LPTA activities); test: Radiometric assay, secreted LPL and LPTA activities (Lyso assay); type: biochemical, Cryptococcus neoformans H99
Protocol: as §1, §2
Secreted LPL and LPTA activities were measured simultaneously in a reaction mixture containing 1-[^14C]palmitoyl lyso-PC (25,000 dpm) and carrier lyso-PC (final concentration 200 μM) in assay buffer. The reaction time was […] with 1 μg of total protein and LPL activity was measured by the rate of loss of 1-[^14C]palmitoyl lyso-PC with release of radiolabelled fatty acids. LPTA activity was estimated from the rate of formation of radiolabelled PC.
as §3, §4, §5

[6] = ATCC90112, Table 7, read-out: MIC (μM) Crypto. (ATCC 90112)
[7] = ATCC10231, Table 7, read-out: MIC (μM) C. alb. (10231)
[8] = ATCC90112, read-out: MIC (μM) Crypto. (ATCC 90112)
[9] = ATCC10231, read-out: MIC (μM) C. alb. (10231)

| SMILES | PLB assay (% inhibition) ([1]; 0.25 μM) | PLB assay (% inhibition) ([1]; 2.5 μM) | PLB assay (% inhibition) ([1]; 25 μM) | PLB assay (% inhibition) ([1]; 250 μM) | MIC [2, 6] | MIC [3, 7] | Haemolytic assay (%) ([4]; 3.5 μM) | Haemolytic assay (%) ([4]; 35 μM) | Haemolytic assay (%) ([4]; 88 μM) | Haemolytic assay (%) ([4]; 175 μM) | Haemolytic assay (%) ([4]; 350 μM) | Lyso assay (% inhibition) LPL ([5]; 0.25 μM) | Lyso assay (% inhibition) LPTA ([5]; 0.25 μM) | Lyso assay (% inhibition) LPL ([5]; 2.5 μM) | Lyso assay (% inhibition) LPTA ([5]; 2.5 μM) | Lyso assay (% inhibition) LPL ([5]; 25 μM) | Lyso assay (% inhibition) LPTA ([5]; 25 μM) | Lyso assay (% inhibition) LPL ([5]; 250 μM) | Lyso assay (% inhibition) LPTA ([5]; 250 μM) | MIC [2, 8] | other results |
| --- | --- | --- | --- | --- | --- | --- | --- | --- | --- | --- | --- | --- | --- | --- | --- | --- | --- | --- | --- | --- | --- |
| CCCCCCCCCCCCCCCC[P+](CCCC)(CCCC)CCCC | 0% | 15% | 37% | 92% | ≤ 0.6 µM | 2.2 µM | 2.5% | 4% | 7% | 32% | 100% | 0% | 0% | 0% | 0% | 15% | 5% | 98% | 95% | – | – |
| C[N+](C)(C)CCCCCCCCCCCC[N+](C)(C)C [1,12-Bis-(trimethylammonium)dodecane dibromide] | – | – | 2% | 3% | – | – | 350 μM = 0% 175 μM = 0% 88 μM = 0% 35 μM = 0% 3.5 μM = 0% | 350 μM = 0% 175 μM = 0% 88 μM = 0% 35 μM = 0% 3.5 μM = 0% | 350 μM = 0% 175 μM = 0% 88 μM = 0% 35 μM = 0% 3.5 μM = 0% | 350 μM = 0% 175 μM = 0% 88 μM = 0% 35 μM = 0% 3.5 μM = 0% | 350 μM = 0% 175 μM = 0% 88 μM = 0% 35 μM = 0% 3.5 μM = 0% | – | – | – | – | 250 μM = 0% 25 μM = 0% 2.5 μM = n.d. 0.25 μM = n.d. | 4% | 250 μM = 0% 25 μM = 0% 2.5 μM = n.d. 0.25 μM = n.d. | 5% | 175 µM | MIC [3, 9]: 175 µM |
| CCC[N+](CCC)(CCC)CCCCCCCCCCCC[N+](CCC)(CCC)CCC [1,12-Bis-(tripropylammonium)dodecane dibromide] | 5% | 6% | 71% | 80% | 5.5 µM | 10 µM | – | – | – | – | – | 0% | 0% | 0% | 0% | 5% | 20% | 8% | 10% | – | PLB assay (% inhibition) ([1]; 6.7 μM): 42%; PLB assay (% inhibition) ([1]; 12.5 μM): 68% |
| CCCC[N+]1(CCCCCCCCCCCC[N+]2(CCCC)CCCC2)CCCC1 [C12-bis-N-butyl-pyro. dibromide, 1,12-Bis-(N-butylpyrrolidinium)dodecane dibromide] | – | – | – | – | 88 µM | 88 µM | 350 μM = 0% 175 μM = 0% 88 μM = 0% 35 μM = 0% 3.5 μM = 0% | 350 μM = 0% 175 μM = 0% 88 μM = 0% 35 μM = 0% 3.5 μM = 0% | 350 μM = 0% 175 μM = 0% 88 μM = 0% 35 μM = 0% 3.5 μM = 0% | 350 μM = 0% 175 μM = 0% 88 μM = 0% 35 μM = 0% 3.5 μM = 0% | 350 μM = 0% 175 μM = 0% 88 μM = 0% 35 μM = 0% 3.5 μM = 0% | – | – | – | – | – | – | – | – | – | – |
| C[N+]1(CCCCCCCCCCCC[N+]2(C)CCCC2)CCCC1 [C12-bis-N-methyl-pyro. dibromide, 1,12-Bis-(1-methylpyrrolidinium)dodecane dibromide] | – | – | 0% | 9% | – | – | – | – | – | – | – | – | – | – | – | 250 μM = 0% 25 μM = 0% 2.5 μM = n.d. 0.25 μM = n.d. | 250 μM = 0% 25 μM = 0% 2.5 μM = n.d. 0.25 μM = n.d. | 250 μM = 0% 25 μM = 0% 2.5 μM = n.d. 0.25 μM = n.d. | 250 μM = 0% 25 μM = 0% 2.5 μM = n.d. 0.25 μM = n.d. | 175 µM | MIC [3, 9]: 175 µM |
